Values belong to the molecule of their own block, whether it stands above or below them. Residues, ends and D or L forms follow the SMILES beside them.
Legend:
[1] = Stability of self-assembled peptide nanoparticles determined by DLS; type: physicochemical; details: for particle stability compared to FF and YF constructs: function of residue at X4, data not shown; for particle stability / time particles stable before disaggregation: DLS; for time particles stable before disaggregation: formed in cold deionized water
Description: (§1) The self-assembled peptide nanoparticles formed (e.g., from FF or YF peptides) in cold water (cold deionized water) as shown in Example 2 were stable for about 2 hours before they eventually disaggregated as determined by DLS. To increase the stability of FF and YF, a solvent injection protocol was used. That is, the peptide constructs were dissolved in an organic solvent (e.g., but not limited to, DMSO, acetone, ethanol, dioxane, acetonitrile, methanol, and THF) at ˜150 mg/ml and a fixed volume was then injected in cold saline solution (e.g., but not limited to, ˜0.9% NaCl) while stirring. Different concentrations and/or types of salts could be used to prepare the saline solution, depending on the solubility of the peptide constructs in the respective solution. In some embodiments, any buffer solution such as PBS, acetate, succinate and citrate buffer could be used instead. The resulting particles size varied with peptide concentration from about 5 mg/ml to about 50 mg/ml with low polydispersities (FIGS. 4A-4B). By addition of 0.9% NaCl in the cold solution, the stability of the particles was increased from about 2 h to about 24 h as determined by DLS. […] Thus, in one embodiment, the average size of the nanoparticles can be controlled by simply varying the temperature of the formulation buffere, e.g., at room temperature or under cold ˜2-4° C. conditions.
In some embodiments, the nanoparticles can be formed by a process, which comprises dissolving an isolated peptide described herein (e.g., example peptides shown in Tables 1-2) in organic solvents such as DMSO at high concentration (e.g., about 400 mg/mL) and injecting a fixed volume of the dissolved peptides in cold saline (e.g., ˜0.9% sodium chloride solution) while stirring. The cold precipitation method (e.g., using a cold saline medium) can more efficiently induce peptide self-assembly. In some embodiments, the cold precipitation method (e.g., using a cold saline medium) can improve particle stability, e.g., from about 2 hours (e.g., when particles were formed by simply mixing the isolated peptides at a specified temperature) to about 24 hours (where the particles were formed by cold saline precipitation method described herein).
To further improve stability of nanoparticles, stability of the resulting particles was investigated as a function of amino acid residue at the X4 position as indicated in Table 1 (entry 3-7) and X4 position as indicated in FIG. 1. […] For example, as shown in FIG. 4E and FIG. 5, the particles self-assembled from the YF peptides or Y peptides can be stable for at least about 120 hours or longer when formed in the formulation buffer (e.g., ˜0.9% NaCl), e.g., using the cold precipitation method described earlier. Without wishing to be bound by theory, this increase in stability is likely, in part, due to the tyrosine residue at position X4 that can be stabilized by the free amine at the N-terminus.

[2] = Cell viability (CellTiter-Blue) of cells cultured with peptides / peptide nanoparticles; type: cell-based; details: mouse, murine breast cancer cells (4T1 and M6 cells); after at least about 24 hours or longer in culture; data not shown; read-out: viable cells
Description: The viability of cells incubated with various concentrations of peptide constructs and/or resulting peptide nanoparticles were evaluated.
To assess effects of the peptides and/or peptide nanostructures described herein on cell viability, cells were grown to confluence in gelatin 96-well plates, following which they were either left untreated or treated with blank or one or more embodiments of the peptide nanoparticles (˜25 mg/ml) for about 18 hours. CellTiter-Blue® reagent was then added to each well and, following 4 hour incubation at ˜37° C., the fluorescence signal was measured using a fluorescence multiwell plate reader (Victor3™, PerkinElmer, Mass., USA). All fluorescent intensity measurements were then normalized with respect to the untreated 4T1 mouse mammary carcinoma cells.

[3] = Dynamic light scattering (DLS) size distribution of self-assembled peptide nanoparticles; type: physicochemical; details: for average hydrodynamic diameter / polydispersity index (PDI): DLS
Excerpt: Self-assembling peptides (e.g., FF and YF peptides as shown in Table 1 and FIG. 1, each with a sequence of 10 amino acids in length) were each prepared by FMOC solid-phase peptide synthesis, for example, on Wang resin and cleaved from the resin with a solution mixture of trifluoroacetic acid/triisopropylsilane/water in a volume ratio of […]. The synthesized peptides were then purified by reversed phase HPLC. These peptide constructs were selected to represent bulky aliphatic and aromatic amino acid residues. […] The peptide concentration of the resulting mixture was about 2.5 mg/mL to about 100 mg/mL. The mixture was stirred at about 200 rpm to about 300 rpm for about 5 mins. The stirring speed can be varied to control size homogeneity. […] Accordingly, the size of the nanostructures can be, at least in part, controlled by the sequence of the amino acid construct.
as §1, with “That is, the peptide constructs were dissolved in an organic solvent (e.g., but not limited to, DMSO, acetone, ethanol, dioxane, acetonitrile, methanol, and THF) at ˜150 mg/ml and a fixed volume was then injected in cold saline solution (e.g., but not limited to, ˜0.9% NaCl) while stirring.” left out
Each peptide was dissolved in distilled deionized water at varying concentrations, which can, in part, control particle size. Mixtures of ˜80 mg/mL, ˜50 mg/mL, and ˜20 mg/mL peptide concentration were each stirred vigorously (e.g., using a magnetic stirrer) for about 10 mins at room temperature or at about 4° C. Nanoparticles were measured, e.g., by dynamic light scattering (DLS), to be in the range from about 50 nm to about 2 μm.
A zeta particle size analyzer (Malvern instruments, UK) operating with a HeNe laser, and a 173° back scattering detector was used to determine the size distribution of the nanoparticles. Samples were prepared at 80 mg/mL, 50 mg/mL, and 20 mg/mL in water and measured directly by dynamic light scattering measurement (n=3 per condition). Malvern instrument software or Microsoft Excel was used to analyze the acquired data.

[4] = Encapsulation of hydrophobic (Nile Red) and hydrophilic (Calcein) dyes in peptide nanoparticles; type: physicochemical; details: YF ~25 mg/mL in cold saline
Description: Nile Red (NR) a hydrophobic dye and Calcein, hydrophilic dyes were used as model agents for hydrophobic and hydrophilic drugs or molecules, respectively. For example, YF was dissolved in DMSO to make a stock concentration of about 380 mg/mL. Stock solutions of Nile red and Calcein dyes were each prepared in DMSO at about 3 mg/ml and about 20 mg/mL, respectively. A mixture of YF (about 380 mg/ml) and at least one model agent (e.g., Nile red (0.28 mg/mL) and/or Calcein (1.8 mg/mL)) was added to a formulation buffer, e.g., cold saline (e.g., about 0.3 mL) and mixed, e.g., by manual pipetting. The final ratios of peptide to dyes were ˜25 mg/ml to ˜0.02 mg/ml (YF:NR) and ˜25 mg/mL to ˜0.124 mg/mL (YF:calcein). In some embodiments, about 20-30% of each dye was encapsulated within self-assembling YF nanoparticles.
The peptide nanostructures (e.g., peptide nanoparticles (NP)) were visualized by fluorescence microscopy using the hydrophobic dye, Nile Red, which has a strong emission at […] when present in a lipid-rich environment and excited at ˜485 nm, or the hydrophilic dyes, calcein (excitation/emission 495 nm/515 nm) and FITC-Dextran (excitation/emission 495 nm/521 nm). […] An aliquot of ˜10 μL solution was then added to a glass cover slip for visualization using fluorescence microscopy (TIRF DM1600).

[5] = Biodistribution of Alexa 750-loaded nanoparticles after tail vein injection; type: in vivo; details: mice
Description: FIG. 11 is a line graph showing biodistribution of YF nanoparticles in mice within 2 hours after injection. An imaging dye (e.g., Alexa 750 dye) was encapsulated in the YF nanoparticles and administered to the mice by tail vein injection.
Chemical and physical properties of the resulting nanoparticles, including size, surface charge, and surface chemistry, are important factors that determine their pharmacodynamics and biodistribution, which define their efficacy to deliver an agent and toxicity. Accordingly, it was next sought to determine tissue distribution of these resulting nanoparticles. Specifically, Alexa 750 dye was encapsulated in YF nanoparticles and administered to mice by tail vein injection. At intervals of 0.5, 1.0, and 2.0 hours, the animals were euthanized, then dissected. […] These nanoparticles can potentially eliminate the need for expensive spraying approach in aerosol delivery.

[6] = formed in cold saline, FIG. 4E, FIG. 5
[7] = formed in cold saline (~0.9% NaCl), solvent injection, FF ~50 mg/mL, YF ~5 mg/mL
[8] = formed in cold saline, FF ~50 mg/mL, YF ~5 mg/mL
[9] = self-assembled in cold deionized water

Molecule: VPGFGVPGWG [FW]
particle stability compared to FF and YF constructs [1]: did not show a significant increase in stability

particle stability [1, 6]: ≥ 5 days
Molecule: CC(C)[C@H](N)C(=O)N1CCC[C@H]1C(=O)NCC(=O)N[C@@H](Cc1ccc(O)cc1)C(=O)NCC(=O)O [Y, VPGYG] (H-VPGYG-OH)
viability [2]: > 80%

Molecule: VPGFGVPGFG [FF]
average hydrodynamic diameter [3, 7]: ~191 nm | polydispersity index (PDI) [3, 8]: 0.18 | polydispersity index (PDI) [3, 9]: 0.27 | time particles stable before disaggregation [1]: about 2 hours | particle stability ([1]; formed in cold saline (~0.9% NaCl), cold precipitation method): ~1 days

average hydrodynamic diameter [3, 7]: 600 nm | polydispersity index (PDI) [3, 8]: 0.07 | average hydrodynamic diameter [3, 9]: ~900 nm | polydispersity index (PDI) [3, 9]: 0.33 | time particles stable before disaggregation [1]: about 2 hours | particle stability [1, 6]: at least 5 days | fraction of each dye encapsulated [4]: 20-30% | time high fluorescence levels detected and maintained in vivo ([5]; Alexa 750 encapsulated, FIG. 11): at least 2 hours
Molecule: CC(C)[C@H](N)C(=O)N1CCC[C@H]1C(=O)NCC(=O)N[C@@H](Cc1ccc(O)cc1)C(=O)NCC(=O)N[C@H](C(=O)N1CCC[C@H]1C(=O)NCC(=O)N[C@@H](Cc1ccccc1)C(=O)NCC(=O)O)C(C)C [YF, VPGYGVPGFG] (H-VPGYGVPGFG-OH)
viability [2]: > 80% | tissue distribution: lungs ([5]; 0.5-2.0 hours): greater deposition of the nanoparticles in the lungs | tissue distribution: brain / blood-brain-barrier ([5]; fluorescence in brain): cross the blood-brain-barrier and deposit in the brain

size distribution (monodispersity) relative to other substituted peptides ([3]; DMSO stock ~380 mg/mL injected in cold saline ~2-4 °C, final ~25 mg/mL, FIG. 14): more monodisperse
Molecule: IPGYG

Molecule: VPGWGVPGFG [WF]
particle stability compared to FF and YF constructs [1]: did not show a significant increase in stability

Molecule: VPGFGVPGYG [FY]
particle stability compared to FF and YF constructs [1]: did not show a significant increase in stability

Reference: patent US20150218252A1, “SELF-ASSEMBLING PEPTIDES, PEPTIDE NANOSTRUCTURES AND USES THEREOF” (President and Fellows of Harvard College, priority 2012, published 2015)
